Data set [1] deals with T1, Bile acid receptor (Homo sapiens) (UniProt Q96RI1).
T1 sequence (whole entry): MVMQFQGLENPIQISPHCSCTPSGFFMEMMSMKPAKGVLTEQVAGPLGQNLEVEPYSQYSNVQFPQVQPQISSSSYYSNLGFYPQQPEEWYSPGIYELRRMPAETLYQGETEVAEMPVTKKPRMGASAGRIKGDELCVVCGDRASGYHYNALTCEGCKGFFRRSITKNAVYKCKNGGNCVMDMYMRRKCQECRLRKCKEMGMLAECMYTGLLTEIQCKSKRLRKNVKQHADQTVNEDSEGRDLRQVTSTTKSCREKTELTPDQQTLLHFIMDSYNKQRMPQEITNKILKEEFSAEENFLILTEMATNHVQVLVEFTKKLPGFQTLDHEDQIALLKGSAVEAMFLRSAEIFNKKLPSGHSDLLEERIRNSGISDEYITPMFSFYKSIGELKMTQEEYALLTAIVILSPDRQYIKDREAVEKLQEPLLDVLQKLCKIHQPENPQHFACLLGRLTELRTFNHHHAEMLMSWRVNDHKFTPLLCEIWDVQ
As to the kind of experiment: Antagonist activity at human FXR expressed in human HepG2 cells assessed as inhibition of CDCA-induced transactivation of SHP gene at 50 uM by measuring relative luciferase activity by transient transfection reporter assay relative to control. In kind it is functional, cell-based.

Data set [2] addresses T1, Bile acid receptor (Homo sapiens). As to the kind of experiment: Antagonist activity at human FXR expressed in human HepG2 cells assessed as upregulation of CYP7A1 gene transactivation at 100 uM by measuring relative luciferase activity by transient transfection reporter assay relative to control. In kind it is functional, cell-based.
Data set [3] shares this target. Put plainly: Antagonist activity at human FXR expressed in human HepG2 cells assessed as upregulation of CYP7A1 gene transactivation at 10 uM by measuring relative luciferase activity by transient transfection reporter assay relative to control. In kind it is functional, cell-based.
Data set [4] has the same target. Put plainly: Antagonist activity at human FXR expressed in human HepG2 cells assessed as inhibition of CDCA-induced transactivation of SHP gene at 10 uM by measuring relative luciferase activity by transient transfection reporter assay relative to control. The class given is functional, cell-based.
Data set [5] has the same target. Put plainly: Antagonist activity at human FXR expressed in human HepG2 cells assessed as inhibition of CDCA-induced transactivation of SHP gene by measuring relative luciferase activity by transient transfection reporter assay relative to control. The class given is functional, cell-based.
The target in data set [6] is T2, Progesterone receptor (Homo sapiens) (UniProt P06401).
T2 sequence (whole entry): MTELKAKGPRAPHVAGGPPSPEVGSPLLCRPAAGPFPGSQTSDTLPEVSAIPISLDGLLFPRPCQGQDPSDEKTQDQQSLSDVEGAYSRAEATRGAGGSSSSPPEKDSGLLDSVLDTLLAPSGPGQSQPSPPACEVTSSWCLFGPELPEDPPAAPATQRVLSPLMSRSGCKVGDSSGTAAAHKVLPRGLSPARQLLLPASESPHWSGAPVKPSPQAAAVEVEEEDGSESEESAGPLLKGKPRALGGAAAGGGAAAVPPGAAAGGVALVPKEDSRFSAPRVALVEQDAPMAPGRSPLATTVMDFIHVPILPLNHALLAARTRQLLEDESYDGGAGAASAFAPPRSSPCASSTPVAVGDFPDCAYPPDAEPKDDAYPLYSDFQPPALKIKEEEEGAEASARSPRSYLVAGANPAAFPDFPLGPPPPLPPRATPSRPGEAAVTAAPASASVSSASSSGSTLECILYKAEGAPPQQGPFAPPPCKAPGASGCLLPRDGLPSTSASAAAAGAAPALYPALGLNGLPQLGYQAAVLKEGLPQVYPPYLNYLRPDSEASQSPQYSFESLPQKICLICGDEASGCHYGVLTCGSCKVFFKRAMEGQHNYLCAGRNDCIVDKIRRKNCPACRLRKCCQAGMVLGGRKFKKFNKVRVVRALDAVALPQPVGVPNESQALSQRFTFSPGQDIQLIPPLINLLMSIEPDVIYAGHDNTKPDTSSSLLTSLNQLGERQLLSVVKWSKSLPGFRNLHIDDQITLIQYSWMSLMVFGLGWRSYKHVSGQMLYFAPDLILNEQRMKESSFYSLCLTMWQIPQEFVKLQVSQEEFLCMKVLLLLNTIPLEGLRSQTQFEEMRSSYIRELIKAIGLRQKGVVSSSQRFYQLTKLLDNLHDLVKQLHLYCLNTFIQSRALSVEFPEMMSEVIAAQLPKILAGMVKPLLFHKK
As to the kind of experiment: Agonist activity at human PR expressed in human HepG2 cells assessed as MMTV gene promoter transactivation at 100 uM by measuring relative luciferase activity by transient transfection reporter assay relative to control. The class given is functional, cell-based.

In data set [7] the target is T1, Bile acid receptor (Homo sapiens). As to the kind of experiment: Agonist activity at human FXR expressed in human HepG2 cells assessed as transactivation of SHP gene at 400 uM by measuring relative luciferase activity by transient transfection reporter assay. In kind it is functional, cell-based.
The target is the same in data set [8]. As to the kind of experiment: Antagonist activity at human FXR expressed in human HepG2 cells assessed as inhibition of CDCA-induced transactivation of SHP gene at 100 uM by measuring relative luciferase activity by transient transfection reporter assay relative to control. The class given is functional, cell-based.
In data set [9] the target is T2, Progesterone receptor (Homo sapiens). Put plainly: Agonist activity at human PR expressed in human HepG2 cells assessed as MMTV gene promoter transactivation at 10 uM by measuring relative luciferase activity by transient transfection reporter assay relative to control. In kind it is functional, cell-based.
Data set [10] deals with Cellular tumor antigen p53 (Homo sapiens) (UniProt P04637). Put plainly: Transactivation of p53 in human HepG2 cells expressing MDM2 promoter by transient transfection reporter assay. In kind it is cell-based.
Chain of Cellular tumor antigen p53 (Homo sapiens) (P04637 whole entry, looked up): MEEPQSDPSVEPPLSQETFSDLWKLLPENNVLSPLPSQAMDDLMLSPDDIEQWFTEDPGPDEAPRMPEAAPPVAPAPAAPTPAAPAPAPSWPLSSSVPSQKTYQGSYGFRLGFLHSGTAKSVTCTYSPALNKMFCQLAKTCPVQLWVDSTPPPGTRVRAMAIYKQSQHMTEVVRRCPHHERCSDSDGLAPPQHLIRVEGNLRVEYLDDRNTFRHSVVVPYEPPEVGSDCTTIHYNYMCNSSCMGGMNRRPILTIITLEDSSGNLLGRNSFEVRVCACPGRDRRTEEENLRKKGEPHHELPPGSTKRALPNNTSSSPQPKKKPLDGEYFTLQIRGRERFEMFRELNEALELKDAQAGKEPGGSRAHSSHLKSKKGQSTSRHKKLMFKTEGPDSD
The next data set concerns HepG2. As to the kind of experiment: Cytotoxicity against human HepG2 cells. The class given is cell-based.

Active and inactive are the calls of the source. No cut-off for these calls is given here.

For the compound `C=C1CCC[C@]2(C)C[C@@H]3OC(=O)C(C)=C3C[C@@H]12`, the inhibition in data set [1] was 50%; in data set [5] it was “Dose-dependent effect”. The fold change (FC) in data set [2] was 2; in [3], 1.5. Moreover, the RLU was 1.5 in data set [4] and 0.9 in data set [8]. Further, the result in data set [6] and in [7] was inactive.

Consider `CC(=O)[C@H]1CC[C@H]2[C@@H]3CCC4=CC(=O)CC[C@]4(C)[C@H]3CC[C@]12C`, for which the RLU in data set [9] was found to be 2.38.

As to `C=C1CCC[C@]2(C)C[C@]3(O)OC(=O)C(C)=C3C[C@@H]12`, the inhibition in data set [1] is 50%; in data set [5] it was “Dose-dependent effect”. Further, the RLU worked out at 1.57 in [9], 1.7 in [4], 3.39 in [6] and 0.85 in data set [8]. In addition, the fold change (FC) in [3] was found to be 1.5. For the same compound, the result in data set [7] was inactive.

For the compound `C=C1CCC[C@]2(C)C=C3OC(=O)C(C)=C3C[C@@H]12` [ATRACTYLENOLIDE I], the outcome in data set [10] was Active. The Activity entry in the data set with HepG2 is recorded as “Toxic”.

For the origin of these results see ChEMBL document CHEMBL2203190, “Sesquiterpenoids from Atractylodes macrocephala act as farnesoid X receptor and progesterone receptor modulators” (Bioorg Med Chem Lett, 2012).
